# Values of other authors in patent publication US20090012284A1, “Process for the Preparation of a Piroxicam: Betacyclodextrin Inclusion Compound” (Chiesi Farmaceutici S.p.A., priority 2004, published 2009).
# Details: pH 5, 37° C.
compound,measurement,value
CN1C(C(=O)Nc2ccccn2)=C(O)c2ccccc2S1(=O)=O [Piroxicam],solubility in water,0.003%
